The source of these data is patent US8324188B2, “Combinations of ET-18-O-CH3and anti-cancer agents for the treatment of cancer” (priority 2006, dated 2012).

The subject of one assay is A549 (FAS negative). Description: WST-1 proliferation assay, A549. The format is cell-based, human. As to conditions: single agent, per experiment line. The protocol:
2000 cells were plated in each well of 96-well flat bottom plates, and incubated overnight at 37 °C in 5% CO2. The growth of plated cells was measured by adding […] of WST-1 reagent (Roche Applied Sciences, Germany) to 3 control wells and measuring the absorbance at 650 nm and at 450 nm, respectively, with a SpectraMax250 plate reader. […] After this incubation, VVST-1 reagent was added to the wells and OD650-OD450 values were calculated as before. six wells were assayed for each conditions and standard deviation was determined: all experiments were performed at least three times independently. […] DDP and GMZ were both purchased from Sigma-aldrich Corp., St. Louis, Mo., USA. The following cell lines were used: A549 (FAS negative), NCI-H460 (FAS positive), and HCC827 (FAS positive), all obtained from the ATTC, Rockville, Md., USA.

Assay [1] concerns androgen-insensitive LNCaP C4-2. Description: apoptosis in LNCaP C4-2 cells. The conditions noted are these: data not shown. The format is cell-based, human.
A further assay concerns T98G. Description: WST-1 proliferation assay, T98G. It is filed as cell-based. The conditions noted are these: Homo sapiens. The procedure:
(§1) AP-121 was prepared as 5 mM stock solution in distilled sterile water, Temozolomide (TMZ) (Haorui Pharma-Chem, Inc., Edison, N.J.) was prepared as 100 mM in sterile filtrated DMSO; Adriamycin (ADR) (Sigma) was prepared as 1 mM in distilled sterile water; Camptothecin (CTP) (Sigma) was prepared as 10 mM solution in 0.1 N NaOH; Tarceva (Proteinkinase, Germany) was prepared as 5 mM solution in sterile DMSO. All compound stocks were kept at −20° C. 2000 cells were plated in each well of 96-well flat bottom plates, and incubated overnight at 37 °C in 5% CO2. The growth of plated cells was measured by adding […] of WST-1 reagent (Roche Applied Sciences, Germany) to 3 control wells and measuring the absorbance at 650 nm and at 450 nm, respectively, with a SpectraMax250 plate reader. […] After this incubation, VVST-1 reagent was added to the wells and OD650-OD450 values were calculated as before. six wells were assayed for each conditions and standard deviation was determined: all experiments were performed at least three times independently. […] Six different concentrations of each drug were used in combinations index measurements and compared to +/− cells, and compared to controls without compound.

For a further assay, the system named is HMEC1 endothelial cells. As to conditions: cited from earlier work.
In the next assay the test system is A431. As to conditions: mean ± SD from three independent experiments, read-out: ED50 values for induction of apoptosis; cited from earlier work.
The next assay concerns LN-18. Description: WST-1 proliferation assay, LN-18. The conditions noted are these: Homo sapiens. The format is cell-based. The protocol: 2000 cells were plated in each well of 96-well flat bottom plates, and incubated overnight at 37 °C in 5% CO2. The growth of plated cells was measured by adding […] of WST-1 reagent (Roche Applied Sciences, Germany) to 3 control wells and measuring the absorbance at 650 nm and at 450 nm, respectively, with a SpectraMax250 plate reader. […] After this incubation, VVST-1 reagent was added to the wells and OD650-OD450 values were calculated as before. six wells were assayed for each conditions and standard deviation was determined: all experiments were performed at least three times independently. […] Six different concentrations of each drug were used in combinations index measurements and compared to +/− cells, and compared to controls without compound.
Background: Tetrazolium dyes change colour on reduction, which living cells bring about.

The next assay deals with U87MG. Description: WST-1 proliferation assay, U87MG. It is filed as cell-based, human. The protocol:
as §1

The next assay concerns LNCaP cells. Description: flow cytometric analysis of annexin V-PE positive / 7-AAD negative LNCaP cells. The format is cell-based, human. The protocol:
In a further approach, 10 μM 1-O-octadecyl-2-O-methyl-glycero-3-phosphocholine (final concentration; “CHEM”) and (ionizing) radiation (5 Gray units; “RT”) were administered simultaneously to the LNCaP cells but the subsequent incubation period was extended to 24 hours. Apoptosis was measured using the Apo-ONE™ Homogenous Caspase-3/7 Assay as described above and expressed as relative fluorescence units (RFLU). The percentage of apoptotic cells was determined by flow cytometric analysis of annexin V-PE positive-stained and 7-AAD (7-Amino ActinomycinD) negative-stained cells (both purchased from BD Biosciences, San Jose, Calif., USA) according to established standard protocols. The data represent means±SEM from three independent experiments.
Next, the interaction of 1-O-octadecyl-2-O-methyl-glycero-3-phosphocholine administration (“CHEM”) and androgen deprivation (“AD”) was investigated. LNCaP cells were deprived of androgen for two days by charcoal absorption of serum according to established procedures well known in the art. CHEM was added in a final concentration of 5 μM and 10 μM, respectively.
Apoptosis was measured using the Apo-ONE™ Homogenous Caspase-3/7 Assay as described above and expressed as relative fluorescence units (RFLU). The percentage of apoptotic cells was determined via annexin V-PE/7-AAD staining as described above. The caspase-317 assay and annexin staining were performed 22 hours after CHEM treatment.
Background: Flow cytometry measures light scatter and fluorescence of single cells or particles in a stream.

Where “and” joins values, the source holds several entries; their conditions need not be identical. Identical values can stand only once.

Turning to `CCCCCCCCCCCCCCCCCCOCC(COP(=O)([O-])OCC[N+](C)(C)C)OC` (racemic) [AP-121, 1-O-octadecyl-2-O-methyl-glycero-3-phosphocholine], the half-maximal inhibitory concentration (IC50) in the assay with A549 (FAS negative) (A549) was 6 µM and 6.9 µM; in the assay with A549 (FAS negative) (Homo sapiens, A549, A549), 8 µM; in the assay on T98G, 4.1 µM; with LN-18 it was 1.3 µM; in the assay on U87MG (Homo sapiens, U-87 MG) it was 8.5 µM. Besides, the “apoptosis in CHEM+RT treated cells” value in assay [1] is recorded as “enhancement of apoptosis”. For the same compound, the anti-angiogenic activity in the assay on HMEC1 endothelial cells is 60 nM. In addition, the EC50 is 15.5 ± 2.9 µM in the assay with A431 and 6.8 µM in the assay on U87MG (Homo sapiens, U-87 MG, single agent or compound mixture as labelled (arrays A2, A1), read-out: ED50 (the source's name)). For the same compound, in the assay with U87MG (ratio to the largest value), the normalized ED50 (arrays B2, B1) was 1. The “% Annexin V-PE pos. cells” value in the assay with LNCaP cells (AD (androgen deprivation, two days) + 5 μM CHEM, AD alone 12.6) is given as 15.4%; in the assay on LNCaP cells (AD + 10 μM CHEM), 27.4%; in the assay with LNCaP cells (AD + R1881 (two days prior) + 5 μM CHEM), 14.6%; in the assay with LNCaP cells (AD + R1881 (two days prior) + 10 μM CHEM) it was 21.6%; in the assay with LNCaP cells (CHEM 10 μM + RT 5 Gray simultaneously, 24 hours, means±SEM, p < 0.0001 vs CHEM and RT), 31.7 ± 1.0 %; in the assay on LNCaP cells (CHEM 10 μM alone, 24 hours, means±SEM, three experiments, Control 3.6 ± 0.2), 18.6 ± 1.0%. The “% Annexin V-PE pos. cells” value came out at 13.0% with LNCaP cells (Contr. + 5 μM CHEM, 22 hours after CHEM, Contr. 9.6) and 17.5% in the assay with LNCaP cells (Contr. + 10 μM CHEM, 22 hours after CHEM). The apoptotic response entry in the assay on LNCaP cells (androgen-deprived LNCaP cells, 5 and 10 μM, not reversed by synthetic androgen) is given as “dose-dependent significant increase”.

By IC50 is commonly meant the midpoint of a concentration-inhibition curve.
